Data published in US8058295B2, “Cystic fibrosis transmembrane conductance regulator protein inhibitors and uses thereof” (The Regents of the University of California, priority 2002, dated 2011).
Entries after “also recorded” stand apart in the source; their conditions may differ.

Assays:
CFTR [1] = biological target: T1, CFTR (Homo sapiens, UniProt P13569); experiment: Electrophysiological studies in Calu-3 cells; type: cell-based; set-up: cells that natively express wildtype CFTR, including T84 cells; endogenous in cells; host or cells: T84 colonic epithelial cells (UCSF cell culture facility); conditions: read-out: apparent potency in electrophysiological studies
T1 sequence (P13569 whole entry): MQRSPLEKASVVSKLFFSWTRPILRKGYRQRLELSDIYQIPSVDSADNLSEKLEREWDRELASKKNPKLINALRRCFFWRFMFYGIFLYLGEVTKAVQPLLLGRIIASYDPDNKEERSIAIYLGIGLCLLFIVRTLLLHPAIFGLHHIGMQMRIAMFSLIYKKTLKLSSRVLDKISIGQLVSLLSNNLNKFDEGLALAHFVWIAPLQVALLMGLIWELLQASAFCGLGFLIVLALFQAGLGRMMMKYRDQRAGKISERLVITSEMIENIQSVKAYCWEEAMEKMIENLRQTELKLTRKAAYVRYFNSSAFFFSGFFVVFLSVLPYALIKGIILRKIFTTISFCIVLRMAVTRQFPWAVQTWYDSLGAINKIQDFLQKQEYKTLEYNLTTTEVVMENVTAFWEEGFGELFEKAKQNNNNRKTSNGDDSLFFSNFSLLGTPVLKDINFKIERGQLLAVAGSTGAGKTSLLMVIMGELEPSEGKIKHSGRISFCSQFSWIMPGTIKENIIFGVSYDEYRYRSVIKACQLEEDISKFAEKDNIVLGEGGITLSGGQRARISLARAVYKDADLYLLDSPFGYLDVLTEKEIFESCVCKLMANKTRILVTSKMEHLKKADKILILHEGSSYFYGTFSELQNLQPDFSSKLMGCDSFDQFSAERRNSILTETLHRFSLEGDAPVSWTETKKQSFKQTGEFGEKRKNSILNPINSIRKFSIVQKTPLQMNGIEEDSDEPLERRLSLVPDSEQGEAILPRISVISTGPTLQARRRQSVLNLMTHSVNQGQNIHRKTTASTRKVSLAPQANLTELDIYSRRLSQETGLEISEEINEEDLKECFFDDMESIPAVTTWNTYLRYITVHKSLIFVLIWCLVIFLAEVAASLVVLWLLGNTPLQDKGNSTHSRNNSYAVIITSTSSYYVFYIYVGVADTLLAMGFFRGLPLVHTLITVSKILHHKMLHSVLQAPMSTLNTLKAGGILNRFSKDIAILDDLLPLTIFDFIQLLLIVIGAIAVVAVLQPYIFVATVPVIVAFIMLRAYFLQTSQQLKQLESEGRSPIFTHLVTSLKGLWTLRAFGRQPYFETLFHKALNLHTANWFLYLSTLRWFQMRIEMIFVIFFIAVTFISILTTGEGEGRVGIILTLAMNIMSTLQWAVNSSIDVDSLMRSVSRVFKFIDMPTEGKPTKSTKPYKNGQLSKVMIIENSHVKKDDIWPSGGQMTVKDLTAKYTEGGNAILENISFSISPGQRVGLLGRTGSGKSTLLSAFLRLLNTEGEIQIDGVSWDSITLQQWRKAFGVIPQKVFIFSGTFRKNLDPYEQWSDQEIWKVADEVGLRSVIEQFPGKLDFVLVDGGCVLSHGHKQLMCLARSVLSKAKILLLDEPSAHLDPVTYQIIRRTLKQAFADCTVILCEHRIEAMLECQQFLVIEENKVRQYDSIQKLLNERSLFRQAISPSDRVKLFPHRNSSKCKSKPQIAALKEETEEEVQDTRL

cellular cAMP production = experiment: Intracellular cAMP assay in FRT cells; type: cell-based, rat
[2] = test system: cholera toxin-induced fluid secretion; set-up: species or system rats; conditions: in vivo
[3] = test system: cholera toxin-induced intestinal fluid secretion; set-up: species or system mice; conditions: mouse, in vivo, po
[4] = biological target: T2, Cl^−/HCO3^− exchanger (AE1) (Homo sapiens, UniProt P02730); experiment: Cl^−/HCO3^− exchanger block; conditions: 5 μM
T2 sequence (P02730 1-911): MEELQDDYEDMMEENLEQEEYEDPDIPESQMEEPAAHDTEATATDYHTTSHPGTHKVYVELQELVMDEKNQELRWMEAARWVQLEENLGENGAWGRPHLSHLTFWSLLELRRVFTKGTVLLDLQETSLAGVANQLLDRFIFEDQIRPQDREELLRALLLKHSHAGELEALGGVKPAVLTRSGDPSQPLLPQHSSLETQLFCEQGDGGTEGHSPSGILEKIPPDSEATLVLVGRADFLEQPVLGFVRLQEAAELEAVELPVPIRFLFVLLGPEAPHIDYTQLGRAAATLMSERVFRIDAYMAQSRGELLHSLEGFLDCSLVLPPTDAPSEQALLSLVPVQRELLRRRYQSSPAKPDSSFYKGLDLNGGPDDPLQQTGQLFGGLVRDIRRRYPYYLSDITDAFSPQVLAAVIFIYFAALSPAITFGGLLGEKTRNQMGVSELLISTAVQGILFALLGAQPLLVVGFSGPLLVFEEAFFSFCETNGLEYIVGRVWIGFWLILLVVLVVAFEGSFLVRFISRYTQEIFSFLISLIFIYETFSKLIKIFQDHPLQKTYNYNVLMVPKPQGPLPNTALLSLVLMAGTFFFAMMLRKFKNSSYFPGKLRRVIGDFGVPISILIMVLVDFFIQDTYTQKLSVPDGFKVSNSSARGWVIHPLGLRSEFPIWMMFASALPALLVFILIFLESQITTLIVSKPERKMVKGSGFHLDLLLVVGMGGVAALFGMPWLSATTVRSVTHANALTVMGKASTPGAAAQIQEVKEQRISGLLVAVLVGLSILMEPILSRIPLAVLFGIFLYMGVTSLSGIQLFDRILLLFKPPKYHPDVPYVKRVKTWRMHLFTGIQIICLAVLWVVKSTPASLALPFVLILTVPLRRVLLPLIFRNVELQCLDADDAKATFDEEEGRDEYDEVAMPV

[5] = pKa by spectrophotometric pH titration; type: physicochemical
CFTR [6] = biological target: T1, CFTR
[7] = test system: cholera toxin-induced fluid secretion; set-up: species or system mice; conditions: mouse, in vivo, po
[8] = biological target: T3, ATP-sensitive K^+ channels (Rattus norvegicus, UniProt Q09429); experiment: Membrane potential recording in INS-1 pancreatic β cells (K-ATP channels); type: cell-based
T3 construct: endogenous in cells; host or cells: INS-1 rat pancreatic β cell line
T3 sequence (Q09429 whole entry): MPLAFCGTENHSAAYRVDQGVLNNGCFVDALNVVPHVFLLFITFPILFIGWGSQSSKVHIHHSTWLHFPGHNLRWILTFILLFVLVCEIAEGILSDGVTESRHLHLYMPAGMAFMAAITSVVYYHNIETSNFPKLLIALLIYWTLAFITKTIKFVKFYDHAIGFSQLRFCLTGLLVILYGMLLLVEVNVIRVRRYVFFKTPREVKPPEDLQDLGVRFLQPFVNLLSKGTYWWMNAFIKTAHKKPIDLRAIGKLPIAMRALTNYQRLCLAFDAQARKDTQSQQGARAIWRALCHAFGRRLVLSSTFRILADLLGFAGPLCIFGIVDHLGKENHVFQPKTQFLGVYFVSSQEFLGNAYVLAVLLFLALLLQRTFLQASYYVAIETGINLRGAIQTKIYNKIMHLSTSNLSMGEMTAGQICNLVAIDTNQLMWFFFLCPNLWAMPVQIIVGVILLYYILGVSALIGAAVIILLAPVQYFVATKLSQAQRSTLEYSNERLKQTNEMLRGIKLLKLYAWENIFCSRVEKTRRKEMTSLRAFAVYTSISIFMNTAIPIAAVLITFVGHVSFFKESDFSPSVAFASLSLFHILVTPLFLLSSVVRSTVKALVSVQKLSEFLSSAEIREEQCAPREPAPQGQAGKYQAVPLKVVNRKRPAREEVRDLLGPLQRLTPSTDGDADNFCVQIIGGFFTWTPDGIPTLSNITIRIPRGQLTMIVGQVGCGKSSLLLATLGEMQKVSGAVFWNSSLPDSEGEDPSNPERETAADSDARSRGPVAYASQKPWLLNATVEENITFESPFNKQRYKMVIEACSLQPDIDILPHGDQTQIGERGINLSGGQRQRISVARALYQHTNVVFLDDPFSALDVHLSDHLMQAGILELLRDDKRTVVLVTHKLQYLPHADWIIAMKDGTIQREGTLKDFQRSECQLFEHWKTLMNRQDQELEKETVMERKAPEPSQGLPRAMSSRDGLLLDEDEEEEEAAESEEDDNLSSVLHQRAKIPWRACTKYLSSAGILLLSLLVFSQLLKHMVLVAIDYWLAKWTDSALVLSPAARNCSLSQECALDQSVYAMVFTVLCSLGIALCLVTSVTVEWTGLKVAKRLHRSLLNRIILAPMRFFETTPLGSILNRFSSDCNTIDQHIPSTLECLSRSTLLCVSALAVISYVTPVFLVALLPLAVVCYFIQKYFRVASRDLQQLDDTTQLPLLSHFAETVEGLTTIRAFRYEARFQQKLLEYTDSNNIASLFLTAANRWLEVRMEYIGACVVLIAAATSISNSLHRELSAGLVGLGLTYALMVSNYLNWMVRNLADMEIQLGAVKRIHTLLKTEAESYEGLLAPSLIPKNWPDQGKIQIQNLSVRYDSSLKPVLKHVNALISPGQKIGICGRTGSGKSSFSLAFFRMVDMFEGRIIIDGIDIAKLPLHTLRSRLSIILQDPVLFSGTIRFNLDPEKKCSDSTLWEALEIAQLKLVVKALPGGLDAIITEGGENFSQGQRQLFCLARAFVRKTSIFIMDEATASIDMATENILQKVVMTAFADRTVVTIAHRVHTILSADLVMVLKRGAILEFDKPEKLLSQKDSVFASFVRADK
T3 sequence (P70673 whole entry partner): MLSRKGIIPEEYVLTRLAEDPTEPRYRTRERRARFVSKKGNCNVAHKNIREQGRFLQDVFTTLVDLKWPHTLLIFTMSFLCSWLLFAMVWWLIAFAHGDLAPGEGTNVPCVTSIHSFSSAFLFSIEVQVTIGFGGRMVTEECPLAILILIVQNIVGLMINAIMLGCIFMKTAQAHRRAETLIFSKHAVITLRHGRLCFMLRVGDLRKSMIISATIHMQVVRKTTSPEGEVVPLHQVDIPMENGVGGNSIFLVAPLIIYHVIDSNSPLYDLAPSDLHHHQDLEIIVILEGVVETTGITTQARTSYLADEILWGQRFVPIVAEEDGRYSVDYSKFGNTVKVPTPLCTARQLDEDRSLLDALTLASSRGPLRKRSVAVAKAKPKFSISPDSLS

wildtype CFTR = wildtype CFTR (Homo sapiens, UniProt P13569); experiment: Short-circuit current in primary culture of human bronchial epithelial cells; type: cell-based; set-up: cells that natively express wildtype CFTR; endogenous in cells; host or cells: primary human bronchial epithelial cells
Sequence of wildtype CFTR (P13569 whole entry): as the sequence (P13569 whole entry) above

[9] = test system: cholera toxin-induced intestinal fluid secretion; set-up: species or system mice; conditions: mouse, in vivo, ip
Animal toxicity in mice = type: in vivo
[10] = Pharmacokinetic and oral bioavailability studies in mice; type: in vivo
Protocol: For comparison other mice were given ^14C-CFTRinh-172 (2 μCi) intravenously by tail vein infusion. Blood was collected from the tail vein at specified times for measurement of plasma ^14C radioactivity. At 6 hours mice were killed by pentobarbital overdose and organs were removed for measurement of radioactivity in homogenates.

MDR-1 = biological target: T4, MDR-1 (Homo sapiens, UniProt P08183); experiment: MDR-1 activity, ^3H-vincristine accumulation in 9HTEo-/Dx cells; type: cell-based; conditions: 5 μM
T4 construct: endogenous in cells; host or cells: 9HTEo-/Dx cells
T4 sequence (P08183 whole entry): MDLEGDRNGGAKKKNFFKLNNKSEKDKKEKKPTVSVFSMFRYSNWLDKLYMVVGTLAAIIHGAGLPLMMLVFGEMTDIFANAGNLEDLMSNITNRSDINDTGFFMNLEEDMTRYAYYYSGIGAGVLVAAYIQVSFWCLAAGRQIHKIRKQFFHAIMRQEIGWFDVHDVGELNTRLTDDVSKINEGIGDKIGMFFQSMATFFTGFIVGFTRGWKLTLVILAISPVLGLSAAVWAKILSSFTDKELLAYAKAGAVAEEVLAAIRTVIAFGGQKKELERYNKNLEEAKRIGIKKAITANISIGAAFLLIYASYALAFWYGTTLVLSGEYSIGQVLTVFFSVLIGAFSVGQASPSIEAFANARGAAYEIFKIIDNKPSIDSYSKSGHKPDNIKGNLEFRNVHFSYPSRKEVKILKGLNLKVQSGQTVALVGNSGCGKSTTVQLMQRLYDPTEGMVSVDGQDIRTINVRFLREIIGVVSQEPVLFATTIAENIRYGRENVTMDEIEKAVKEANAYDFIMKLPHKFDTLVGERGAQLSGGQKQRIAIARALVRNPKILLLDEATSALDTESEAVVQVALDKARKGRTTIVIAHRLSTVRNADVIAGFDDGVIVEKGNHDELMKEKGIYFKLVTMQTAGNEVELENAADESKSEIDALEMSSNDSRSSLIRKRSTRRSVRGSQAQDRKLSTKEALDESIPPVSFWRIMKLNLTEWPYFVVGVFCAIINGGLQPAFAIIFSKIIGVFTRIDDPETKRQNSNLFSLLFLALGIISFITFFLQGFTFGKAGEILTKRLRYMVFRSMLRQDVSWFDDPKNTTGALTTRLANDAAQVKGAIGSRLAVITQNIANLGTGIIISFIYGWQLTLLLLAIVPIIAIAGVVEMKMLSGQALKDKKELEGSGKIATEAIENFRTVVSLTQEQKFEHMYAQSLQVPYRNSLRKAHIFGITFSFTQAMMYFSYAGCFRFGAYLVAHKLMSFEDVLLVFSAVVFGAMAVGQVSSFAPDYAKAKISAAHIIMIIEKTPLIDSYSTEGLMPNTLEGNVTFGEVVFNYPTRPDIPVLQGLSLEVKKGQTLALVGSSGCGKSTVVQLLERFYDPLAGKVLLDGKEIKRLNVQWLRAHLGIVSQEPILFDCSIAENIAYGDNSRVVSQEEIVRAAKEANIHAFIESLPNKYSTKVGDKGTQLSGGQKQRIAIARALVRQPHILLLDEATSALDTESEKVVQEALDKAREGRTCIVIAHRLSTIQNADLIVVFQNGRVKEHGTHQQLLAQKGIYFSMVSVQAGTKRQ

[11] = Tissue distribution in rats after intravenous bolus; type: in vivo; conditions: 60 min after i.v. bolus
Protocol: A bolus of ^14C-CFTRinh-172 (2 μCi) was administered intravenously over 1 min in mice (male CD1 mice, 30-35 grams) by tail vein. Mice were sacrificed at 5, 30, 120 and 240 min. Organs were removed, weighed and homogenized in distilled water (10-50 vol %). Radioactivity was determined by scintillation counting of the homogenates (25-50 μL) and expressed as total ^14C-radioactivity per organ (or per gram tissue for skeletal muscle). At the same time blood, urine and bile (from gallbladder or duodenum) were collected and ^14C-radioactivity was measured and expressed per mL of fluid. Elimination studies were done by collections of urine and stool over the first 24 hr after ^14C-CFTRinh-172 administration. Tissue distribution studies were also done on rats prepared as for pharmacokinetic studies.

[12] = intraperitoneal 1000 μg/kg daily for 7 days

O=C(O)c1ccc(/C=C2\SC(=S)N(c3cccc(C(F)(F)F)c3)C2=O)cc1 [CFTRinh-172, 3-[(3-trifluoromethyl)phenyl]-5-[(4-carboxyphenyl)methylene]-2-thioxo-4-thiazolidinone]
IC50 (CFTR [1]): 500 nM | effect on cellular cAMP production (cellular cAMP production; 5 μM): did not affect | cAMP content (cellular cAMP production; 30 min after 20 μM forskolin, + inhibitor (n=3)): 1140±50 fmol/well | cholera-toxin induced fluid secretion in rat intestinal loops [2]: prevented cholera-toxin induced fluid secretion | intestinal fluid accumulation (ratio of intestinal weight before vs. after luminal fluid removal) [3]: remarkably reduced intestinal fluid accumulation | block of Cl^−/HCO3^− exchanger (AE1) [4]: did not block | fraction present as the unionized acid ([5]; physiological pH): ~1% | pKa ([5]; spectrophotometric pH titration): 5.5 | effect on membrane current (CFTR [6]; 2 μM extracellular perfusion, after 5 μM forskolin): rapid reduction in current at all membrane potentials | inhibition at 0.2 µM (CFTR [6]; FRT, read-out: inhibition of membrane current): ~50% | cholera toxin-induced fluid secretion [7]: Inhibition of cholera toxin-induced fluid secretion | effect on membrane potential ([8]; 5 μM): small hyperpolarization | effect on membrane potential ([8]; 2 and 5 μM): did not depolarize membrane potential | inhibition of short-circuit current (wildtype CFTR; added from the basolateral side): inhibited short-circuit current | inhibition of short-circuit current (wildtype CFTR; apical side, amiloride, after CPT-cAMP activation): inhibited short-circuit current strongly | fluid accumulation in cholera toxin-treated loops [9]: effectively prevented fluid accumulation; also recorded: significantly reduced fluid secretion to that in saline control loops | inhibition of fluid accumulation in cholera toxin-injected loops [9]: ~90% | inhibition of luminal fluid accumulation [9]: significant inhibition of luminal fluid accumulation; also recorded: much less inhibition | t1/2 for persistence of inhibition [9]: 9 to 10 h | food and water intake (Animal toxicity in mice; [12]): not diminished | overt toxicity (Animal toxicity in mice; [12]): did not cause overt toxicity | serum electrolyte concentrations, glucose, liver function indices, serum creatinine, amylase and hematocrit (Animal toxicity in mice; [12]): not changed | overt toxicity (Animal toxicity in mice; single systemic dose 10 mg/kg): did not cause overt toxicity | organ distribution ([10]; 6 hr after oral and intravenous administration): accumulation in the gastrointestinal tract as well as the liver and kidney | oral bioavailability ([10]; TPGS preparation, oral vs. intravenous tissue/serum content at 4-6 hr): 15-20% | time over which high initial serum concentrations decreased (tissue redistribution) ([10]; mice, intravenous): ~30 min | time of peak serum radioactivity ([10]; mice, oral administration in TPGS): 60 to 90 min | concentration of ^14C radioactivity in bile vs. serum ([10]; mouse, in vivo): ~10 fold | radioactivity excreted in the stool ([10]; over 24 hr): < 10 % of total excreted radioactivity | vincristine accumulation (MDR-1): did not affect vincristine accumulation | organ distribution of ^14C radioactivity [11]: little radioactivity in brain, heart and skeletal muscle
